Results on 15 molecules are retold here after patent publication US10208089B2, “Modulation of complement activity” (priority 2014, dated 2019).

Starred links: 1 amine or outer side, 2 acyl side, 3 side chain; linkers in the order of their positions; H or OH if unused. Positions of bridges follow the written chain, without caps; N, C: chain ends. Non-standard residues stand in square brackets, D forms with d. Residues, ends and D or L forms follow the SMILES beside them. Ala(1H-tetrazol-5-yl) = N[C@@H](Cc1nnn[nH]1)C(=O)O; Trp(7-aza) = N[C@@H](Cc1c[nH]c2ncccc12)C(=O)O; mXylylene = c1cc(C[*:1])cc(C[*:2])c1; pXylylene = c1cc(C[*:2])ccc1C[*:1]; Chg = N[C@H](C(=O)O)C1CCCCC1; Phg = N[C@H](C(=O)O)c1ccccc1; Tle = CC(C)(C)[C@H](N)C(=O)O; NMeS = CN[C@@H](CO)C(=O)O; hCys = N[C@@H](CCS)C(=O)O; Nva = CCC[C@H](N)C(=O)O; Sar = CNCC(=O)O

The target of the first test is C5 (Homo sapiens, UniProt P01031). In words: Human hemolysis assay (RBC lysis assay using complete human sera). The format is cell-based. Further details: with complete human sera (Complement Technology, Tyler Tex.) and polypeptides; tissue Complement Technology, Tyler Tex; host or cells: complete human serum. The following applies: 7-azatryptophan variant polypeptides of R3002; inhibition of red blood cell lysis.
Sequence of C5 (P01031 19-1676): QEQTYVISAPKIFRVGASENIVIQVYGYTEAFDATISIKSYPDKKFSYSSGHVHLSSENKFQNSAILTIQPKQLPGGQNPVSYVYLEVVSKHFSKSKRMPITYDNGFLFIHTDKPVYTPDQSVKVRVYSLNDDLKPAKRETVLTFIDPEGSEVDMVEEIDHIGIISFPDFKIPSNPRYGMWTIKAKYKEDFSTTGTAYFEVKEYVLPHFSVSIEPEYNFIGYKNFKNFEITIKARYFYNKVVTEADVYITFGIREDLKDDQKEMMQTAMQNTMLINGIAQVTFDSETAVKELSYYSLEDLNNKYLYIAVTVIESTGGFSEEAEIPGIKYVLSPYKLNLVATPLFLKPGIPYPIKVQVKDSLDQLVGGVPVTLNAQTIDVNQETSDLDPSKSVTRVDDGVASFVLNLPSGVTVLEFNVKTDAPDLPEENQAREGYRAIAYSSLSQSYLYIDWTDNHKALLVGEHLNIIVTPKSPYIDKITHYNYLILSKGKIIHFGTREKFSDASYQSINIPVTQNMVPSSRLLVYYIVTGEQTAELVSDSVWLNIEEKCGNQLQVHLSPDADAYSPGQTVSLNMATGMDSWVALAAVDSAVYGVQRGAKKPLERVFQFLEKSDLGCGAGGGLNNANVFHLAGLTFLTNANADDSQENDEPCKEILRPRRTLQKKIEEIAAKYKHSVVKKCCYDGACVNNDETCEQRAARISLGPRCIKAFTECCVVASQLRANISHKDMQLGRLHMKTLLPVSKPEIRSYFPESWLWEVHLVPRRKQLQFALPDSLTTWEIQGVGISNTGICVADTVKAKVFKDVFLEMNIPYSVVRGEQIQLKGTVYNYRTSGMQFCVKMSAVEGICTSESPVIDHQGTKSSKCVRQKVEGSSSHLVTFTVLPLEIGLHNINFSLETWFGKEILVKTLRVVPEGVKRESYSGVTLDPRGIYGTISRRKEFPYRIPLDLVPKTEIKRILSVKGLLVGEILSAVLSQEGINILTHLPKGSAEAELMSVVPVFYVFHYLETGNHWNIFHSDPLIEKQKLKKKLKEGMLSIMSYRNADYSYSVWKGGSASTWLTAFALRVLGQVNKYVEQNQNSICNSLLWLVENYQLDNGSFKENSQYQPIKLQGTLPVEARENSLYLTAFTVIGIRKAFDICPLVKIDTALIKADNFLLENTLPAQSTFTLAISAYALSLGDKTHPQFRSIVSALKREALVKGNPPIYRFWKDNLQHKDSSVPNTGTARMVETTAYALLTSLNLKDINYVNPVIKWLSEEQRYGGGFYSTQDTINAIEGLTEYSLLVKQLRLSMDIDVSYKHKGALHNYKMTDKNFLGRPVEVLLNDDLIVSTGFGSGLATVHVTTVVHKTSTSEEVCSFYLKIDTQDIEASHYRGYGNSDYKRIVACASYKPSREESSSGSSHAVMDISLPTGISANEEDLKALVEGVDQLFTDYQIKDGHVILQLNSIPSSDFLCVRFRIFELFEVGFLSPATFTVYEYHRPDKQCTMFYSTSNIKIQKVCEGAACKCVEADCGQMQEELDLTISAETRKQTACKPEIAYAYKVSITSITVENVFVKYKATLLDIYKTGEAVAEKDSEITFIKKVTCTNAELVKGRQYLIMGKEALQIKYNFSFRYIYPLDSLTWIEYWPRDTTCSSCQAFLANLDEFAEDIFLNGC
As a reminder, the IC50 is the concentration that gives 50% inhibition. Take `CCC[C@H](NC(=O)[C@@H](NC(=O)[C@@H]1CCCN1C(=O)[C@H](Cc1ccc(O)cc1)NC(=O)[C@H](CCC(=O)O)NC(=O)[C@@H](Cc1c[nH]c2ccccc12)NC(=O)[C@H](Cc1ccc(O)cc1)NC(=O)[C@H](CC(N)=O)NC(=O)[C@H](CCC(=O)O)NC(=O)[C@H](Cc1ccc(O)cc1)NC(C)=O)c1ccccc1)C(N)=O` [Compound R3119, Ac-Y-E-N-Y-(D-Trp)-E-Y-P-Phg-Nvl-NH2] (Ac-YENY[dW]EYP[Phg][Nva]-NH2): the IC50 was over 100 µM.

Staying with this test, now noted: 7-azatryptophan variant polypeptides of R3008; inhibition of red blood cell lysis.
Take `CCC[C@H](NC(=O)[C@@H]1CSCc2cccc(c2)CSC[C@H](NC(=O)[C@H](CCC)NC(C)=O)C(=O)N[C@@H](c2ccccc2)C(=O)N[C@@H]([C@@H](C)O)C(=O)N[C@@H](Cc2ccccc2)C(=O)N[C@@H](CCC(=O)O)C(=O)N[C@@H](Cc2ccc(O)cc2)C(=O)N(C)[C@@H](CO)C(=O)N[C@@H](C)C(=O)N1)C(N)=O` [Compound R3092, [mXylyl(2,10)]Ac-Nvl-C-Phg-T-F-E-Y-(N-Me)S-A-C-Nvl-NH2] (Ac-[Nva]C[Phg]TFEY[NMeS]AC[Nva]-NH2; linker 2-10 via mXylylene): the IC50 is over 50 µM.

The test is the same for the next values; noted with them: inhibition of lysis of antibody-sensitized sheep erythrocytes, complete human sera.
For the molecule `CCC[C@H](NC(=O)[C@@H](NC(=O)[C@@H]1CCCN1C(=O)[C@H](Cc1ccc(O)cc1)NC(=O)[C@H](CCC(=O)O)NC(=O)[C@H](Cc1c[nH]c2ncccc12)NC(=O)[C@H](Cc1ccc(O)cc1)NC(=O)[C@@H](NC(=O)[C@H](CC(=O)O)NC(=O)[C@@H]1CSCc2cccc(c2)CSC[C@H](NC(C)=O)C(=O)N[C@@H](C(C)C)C(=O)N[C@@H](CCC(=O)O)C(=O)N[C@@H](C)C(=O)N[C@@H](Cc2ccccc2)C(=O)N1)C(C)(C)C)c1ccccc1)C(N)=O` [Compound R3153, [mXylyl(1,6)]Ac-C-V-E-A-F-C-D-Tba-Y-azaTrp-E-Y-P-Phg-Nvl-NH2] (Ac-CVEAFCD[Tle]Y[Trp(7-aza)]EYP[Phg][Nva]-NH2; linker 1-6 via mXylylene), the IC50 was 0.175 µM.

Turning to `CC(=O)N[C@H]1CSCc2cccc(c2)CSC[C@@H](C(=O)N[C@@H](CC(=O)O)C(=O)N[C@H](C(=O)N[C@@H](Cc2ccc(O)cc2)C(=O)N[C@@H](Cc2c[nH]c3ncccc23)C(=O)N[C@@H](CCC(=O)O)C(=O)N[C@@H](Cc2ccc(O)cc2)C(=O)N2CCC[C@H]2C(=O)N[C@H](C(=O)N[C@@H](CCCCN)C(N)=O)c2ccccc2)C(C)(C)C)NC(=O)[C@H](Cc2ccccc2)NC(=O)[C@H](CCCNC(=N)N)NC(=O)[C@H](CCC(=O)O)NC(=O)[C@H](C)NC1=O` [Compound R3161, [mXylyl(1,6)]Ac-C-A-E-R-F-C-D-Tbg-Y-azaTrp-E-Y-P-Phg-K-NH2], the IC50 was 0.007 µM. Still for that read-out and setting: in the case of `CCC[C@H](NC(=O)[C@@H]1CSCc2cccc(c2)CSC[C@H](NC(=O)[C@H](CCC)NC(C)=O)C(=O)N[C@@H](c2ccccc2)C(=O)N[C@@H]([C@@H](C)O)C(=O)N[C@@H](Cc2c[nH]c3ncccc23)C(=O)N[C@@H](CCC(=O)O)C(=O)N[C@@H](Cc2ccc(O)cc2)C(=O)N(C)[C@@H](CO)C(=O)N[C@@H](Cc2c[nH]cn2)C(=O)N1)C(N)=O` [Compound R3012, [mXylyl(2,10)]Ac-Nvl-C-Phg-T-azaTrp-E-Y-(N-Me)S-H-C-Nvl-NH2] (Ac-[Nva]C[Phg]T[Trp(7-aza)]EY[NMeS]HC[Nva]-NH2; linker 2-10 via mXylylene) it was 0.148 µM; in that of `CCC[C@H](NC(=O)[C@@H](NC(=O)[C@@H]1CCCN1C(=O)[C@H](Cc1ccc(O)cc1)NC(=O)[C@H](CCC(=O)O)NC(=O)[C@H](Cc1c[nH]c2ncccc12)NC(=O)[C@H](Cc1ccc(O)cc1)NC(=O)[C@@H](NC(=O)[C@H](Cc1nnn[nH]1)NC(=O)[C@@H]1CSCc2cccc(c2)CSC[C@H](NC(C)=O)C(=O)N[C@@H](C(C)C)C(=O)N[C@@H](CCC(=O)O)C(=O)N[C@@H](CCCNC(=N)N)C(=O)N[C@@H](Cc2ccccc2)C(=O)N1)C(C)(C)C)C1CCCCC1)C(N)=O` [Compound R3168, [mXylyl(1,6)]Ac-C-V-E-R-F-C-Asp(T)-Tbg-Y-azaTrp-E-Y-P-Chg-Nvl-NH2] (Ac-CVERFC[Ala(1H-tetrazol-5-yl)][Tle]Y[Trp(7-aza)]EYP[Chg][Nva]-NH2; linker 1-6 via mXylylene), 0.0075 µM. Turning to `CCC[C@H](NC(C)=O)C(=O)N[C@H]1CSCc2cccc(c2)CSC[C@@H](C(N)=O)NC(=O)[C@@H]2CCCN2C(=O)[C@H](CCC)NC(=O)[C@H](CCC)NC(=O)[C@H](CCC(=O)O)NC(=O)[C@H](Cc2c[nH]c3ncccc23)NC(=O)[C@H](Cc2ccc(O)cc2)NC(=O)[C@H](C(C)(C)C)NC(=O)CN(C)C(=O)[C@H](CCC(=O)O)NC(=O)[C@H](Cc2ccc(O)cc2)NC1=O` [Compound R3010, [mXylyl(2,13)]Ac-Nvl-C-Y-E-(N-Me)G-Tbg-Y-azaTrp-E-Nvl-Nvl-P-C-NH2] (Ac-[Nva]CYE[Sar][Tle]Y[Trp(7-aza)]E[Nva][Nva]PC-NH2; linker 2-13 via mXylylene), the IC50 is over 100 µM. Regarding `CCC[C@H](NC(=O)[C@@H]1CSCc2ccc(cc2)CSCC[C@H](NC(=O)[C@H](CCC)NC(C)=O)C(=O)N[C@@H](c2ccccc2)C(=O)N[C@@H]([C@@H](C)O)C(=O)N[C@@H](Cc2c[nH]c3ncccc23)C(=O)N[C@@H](CCC(=O)O)C(=O)N[C@@H](Cc2ccc(O)cc2)C(=O)N(C)[C@@H](CO)C(=O)N[C@@H](Cc2c[nH]cn2)C(=O)N1)C(N)=O` [Compound R3104, [pXylyl(2,10)]Ac-Nvl-homoC-Phg-T-azaTrp-E-Y-(N-Me)S-H-C-Nvl-NH2] (Ac-[Nva][hCys][Phg]T[Trp(7-aza)]EY[NMeS]HC[Nva]-NH2; linker 2-10 via pXylylene), the IC50 was over 2 µM. The same measure, in the same setting: the same measure for `CCC[C@H](NC(=O)[C@@H](NC(=O)[C@@H]1CCCN1C(=O)[C@H](Cc1ccc(O)cc1)NC(=O)[C@H](CCC(=O)O)NC(=O)[C@@H](Cc1c[nH]c2ccccc12)NC(=O)[C@H](Cc1ccc(O)cc1)NC(=O)[C@H](CC(N)=O)NC(=O)[C@H](CCC(=O)O)NC(=O)[C@H](Cc1ccc(O)cc1)NC(C)=O)c1ccccc1)C(N)=O` [Compound R3119, Ac-Y-E-N-Y-(D-Trp)-E-Y-P-Phg-Nvl-NH2] (Ac-YENY[dW]EYP[Phg][Nva]-NH2): over 100 µM. Turning to `CCC[C@H](NC(=O)[C@@H]1CSCc2cccc(c2)CSC[C@H](NC(=O)[C@H](CCC)NC(C)=O)C(=O)N[C@@H](c2ccccc2)C(=O)N[C@@H]([C@@H](C)O)C(=O)N[C@@H](Cc2ccccc2)C(=O)N[C@@H](CCC(=O)O)C(=O)N[C@@H](Cc2ccc(O)cc2)C(=O)N(C)[C@@H](CO)C(=O)N[C@@H](C)C(=O)N1)C(N)=O` [Compound R3092, [mXylyl(2,10)]Ac-Nvl-C-Phg-T-F-E-Y-(N-Me)S-A-C-Nvl-NH2] (Ac-[Nva]C[Phg]TFEY[NMeS]AC[Nva]-NH2; linker 2-10 via mXylylene), the IC50 is over 50 µM. The same measure, in the same setting: the same measure for `CCC[C@H](NC(=O)[C@@H]1CSCc2cccc(c2)CSC[C@H](NC(=O)[C@H](CCC)NC(C)=O)C(=O)N[C@@H](C)C(=O)N[C@@H]([C@@H](C)O)C(=O)N[C@@H](Cc2c[nH]c3ncccc23)C(=O)N[C@@H](CCC(=O)O)C(=O)N[C@@H](Cc2ccc(O)cc2)C(=O)N(C)[C@@H](CO)C(=O)N[C@@H](Cc2c[nH]cn2)C(=O)N1)C(N)=O` [Compound R3032, [mXylyl(2,10)]Ac-Nvl-C-A-T-azaTrp-E-Y-(N-Me)S-H-C-Nvl-NH2] (Ac-[Nva]CAT[Trp(7-aza)]EY[NMeS]HC[Nva]-NH2; linker 2-10 via mXylylene): over 10 µM; for `CC(=O)N[C@H]1CSCc2cccc(c2)CSC[C@@H](C(=O)N[C@@H](CC(=O)O)C(=O)N[C@H](C(=O)N[C@@H](Cc2ccc(O)cc2)C(=O)N[C@@H](Cc2c[nH]c3ccccc23)C(=O)N[C@@H](CCC(=O)O)C(=O)N[C@@H](Cc2ccccc2)C(=O)N2CCC[C@H]2C(N)=O)C(C)C)NC(=O)[C@H](Cc2ccccc2)NC(=O)[C@H](CCCNC(=N)N)NC(=O)[C@H](CCC(=O)O)NC(=O)[C@H](C(C)C)NC1=O` [Compound R3141, [mXylyl(1,6)]Ac-C-V-E-R-F-C-D-V-Y-W-E-F-P-NH2] (Ac-CVERFCDVYWEFP-NH2; linker 1-6 via mXylylene): 0.0245 µM; for `CCC[C@H](NC(=O)[C@@H]1CSCc2cccc(c2)CSC[C@H](NC(=O)[C@H](CCC)NC(C)=O)C(=O)N[C@@H](c2ccccc2)C(=O)N[C@@H]([C@@H](C)O)C(=O)N[C@@H](Cc2c[nH]c3ncccc23)C(=O)N[C@@H](CCC(=O)O)C(=O)N[C@@H](Cc2ccc(O)cc2)C(=O)N(C)[C@@H](CO)C(=O)N[C@H](C)C(=O)N1)C(N)=O` [Compound R3135, [mXylyl(2,10)]Ac-Nvl-C-Phg-T-azaTrp-E-Y-(N-Me)S-(D-Ala)-C-Nvl-NH2] (Ac-[Nva]C[Phg]T[Trp(7-aza)]EY[NMeS][dA]C[Nva]-NH2; linker 2-10 via mXylylene): over 25 µM. On the same count and under the same terms, the same measure for `CCC[C@H](NC(=O)[C@@H]1CSCc2cccc(c2)CSC[C@H](NC(=O)[C@@H](NC(=O)[C@@H](NC(=O)[C@H](CCC)NC(C)=O)[C@@H](C)O)c2ccccc2)C(=O)N[C@@H](Cc2c[nH]c3ncccc23)C(=O)N[C@@H](CCC(=O)O)C(=O)N[C@@H](Cc2ccc(O)cc2)C(=O)N(C)[C@@H](CO)C(=O)N[C@@H](C)C(=O)N1)C(N)=O` [Compound R3111, [mXylyl(4,10)]Ac-Nvl-T-Phg-C-azaTrp-E-Y-(N-Me)S-A-C-Nvl-NH2] (Ac-[Nva]T[Phg]C[Trp(7-aza)]EY[NMeS]AC[Nva]-NH2; linker 4-10 via mXylylene): over 5 µM. As to `CCC[C@H](NC(=O)[C@@H](NC(=O)[C@@H]1CCCN1C(=O)[C@H](Cc1ccc(O)cc1)NC(=O)[C@H](CCC(=O)O)NC(=O)[C@H](Cc1c[nH]c2ncccc12)NC(=O)[C@H](Cc1ccc(O)cc1)NC(=O)[C@@H](NC(C)=O)C(C)(C)C)c1ccccc1)C(N)=O` [Compound R3028, Ac-Tbg-Y-azaTrp-E-Y-P-Phg-Nvl-NH2] (Ac-[Tle]Y[Trp(7-aza)]EYP[Phg][Nva]-NH2), the IC50 was over 10 µM. On to `CCC[C@H](NC(=O)[C@@H](NC(=O)[C@@H]1CCCN1C(=O)[C@H](Cc1ccc(O)cc1)NC(=O)[C@H](CCC(=O)O)NC(=O)[C@H](Cc1c[nH]c2ncccc12)NC(=O)[C@H](Cc1ccc(O)cc1)NC(=O)[C@@H](NC(=O)[C@H](CC(=O)O)NC(=O)[C@@H]1CSCc2cccc(c2)CSC[C@H](NC(C)=O)C(=O)N[C@@H](C(C)C)C(=O)N[C@@H](CCC(=O)O)C(=O)N[C@@H](CCCNC(=N)N)C(=O)N[C@@H](C)C(=O)N1)C(C)(C)C)c1ccccc1)C(N)=O` [Compound R3155, [mXylyl(1,6)]Ac-C-V-E-R-A-C-D-Tbg-Y-azaTrp-E-Y-P-Phg-Nvl-NH2] (Ac-CVERACD[Tle]Y[Trp(7-aza)]EYP[Phg][Nva]-NH2; linker 1-6 via mXylylene), for which the IC50 was determined as 1.53 µM.

In the case of `CCC[C@H](NC(=O)[C@@H]1CSCc2cccc(c2)CSC[C@H](NC(=O)[C@H](CCC)NC(C)=O)C(=O)N[C@@H](c2ccccc2)C(=O)N[C@H](C)C(=O)N[C@@H](Cc2c[nH]c3ncccc23)C(=O)N[C@@H](CCC(=O)O)C(=O)N[C@@H](Cc2ccc(O)cc2)C(=O)N(C)[C@@H](CO)C(=O)N[C@@H](Cc2c[nH]cn2)C(=O)N1)C(N)=O` [Compound R3133, [mXylyl(2,10)]Ac-Nvl-C-Phg-(D-Ala)-azaTrp-E-Y-(N-Me)S-H-C-Nvl-NH2] (Ac-[Nva]C[Phg][dA][Trp(7-aza)]EY[NMeS]HC[Nva]-NH2; linker 2-10 via mXylylene), the IC50 is over 75 µM.
